What was measured:
Sirt3 [1] = molecular target: T1, Sirt3 (Homo sapiens, UniProt Q9NTG7); assay: ELISA-based deacetylation assay (Figure S3B); format: biochemical
T1 sequence (Q9NTG7 102-399): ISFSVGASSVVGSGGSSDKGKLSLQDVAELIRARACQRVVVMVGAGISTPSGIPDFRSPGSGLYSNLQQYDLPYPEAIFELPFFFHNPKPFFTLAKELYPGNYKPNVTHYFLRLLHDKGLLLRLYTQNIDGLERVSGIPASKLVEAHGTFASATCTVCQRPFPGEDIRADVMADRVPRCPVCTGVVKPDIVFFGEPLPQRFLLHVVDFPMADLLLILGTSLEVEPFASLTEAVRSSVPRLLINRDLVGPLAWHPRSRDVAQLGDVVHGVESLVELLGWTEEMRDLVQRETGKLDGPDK

Sirt5 [2] = molecular target: T2, Sirt5 (Homo sapiens, UniProt Q9NXA8); assay: ELISA-based deacetylation assay (weak inhibition, Figure S3B); format: biochemical
T2 construct: catalytic core, residues 34–302
T2 sequence (Q9NXA8 34-302): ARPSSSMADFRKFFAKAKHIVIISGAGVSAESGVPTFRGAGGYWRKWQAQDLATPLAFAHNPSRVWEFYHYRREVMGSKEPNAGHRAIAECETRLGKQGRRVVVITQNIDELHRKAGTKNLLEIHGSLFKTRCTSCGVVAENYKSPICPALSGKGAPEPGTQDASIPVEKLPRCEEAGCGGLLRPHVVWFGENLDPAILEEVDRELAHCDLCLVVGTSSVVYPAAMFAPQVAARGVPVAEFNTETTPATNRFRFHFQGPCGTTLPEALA

Sirt5 [3] = molecular target: T2, Sirt5; assay: FdL1 fluorogenic deacetylation assay (activation dose-response); format: biochemical
Sirt3 [4] = molecular target: T3, Sirt3 (Homo sapiens, UniProt Q9NTG7); assay: X-ray crystal structure ([…] Å, ternary with FdL1 peptide), plus FdL2 deacetylation inhibition; format: binding
T3 construct: catalytic core, residues 118–399
T3 sequence (Q9NTG7 118-399): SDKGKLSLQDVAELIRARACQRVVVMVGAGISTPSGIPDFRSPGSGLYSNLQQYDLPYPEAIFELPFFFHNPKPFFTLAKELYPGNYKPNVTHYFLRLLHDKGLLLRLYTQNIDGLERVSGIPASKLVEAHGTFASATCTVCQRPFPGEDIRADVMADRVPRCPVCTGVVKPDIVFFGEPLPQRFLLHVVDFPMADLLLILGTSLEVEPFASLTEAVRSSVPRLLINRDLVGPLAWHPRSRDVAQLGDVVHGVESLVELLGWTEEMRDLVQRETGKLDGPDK

Sirt5 [5] = molecular target: T2, Sirt5; assay: Cytochrome c deacetylation ELISA (activation, Figure S3A); format: biochemical
Sirt5 [6] = molecular target: T2, Sirt5; assay: X-ray crystal structure ([…] Å, ternary with FdL1 peptide; ligand occupancy […]), plus deacetylase activation assays; format: binding

In the case of `O=c1c(O)c(-c2ccc(O)c(O)c2)oc2cc(O)ccc12` [fisetin], the “ELISA-based deacetylation assay (Figure S3B)” value (Sirt3 [1]) is reported as “only fisetin shows a weak inhibitory effect on Sirt5 and significant inhibition of Sirt3 in an ELISA-based deacetylation assay” and the “ELISA-based deacetylation assay (weak inhibition, Figure S3B)” value (Sirt5 [2]) is reported as “only fisetin shows a weak inhibitory effect on Sirt5”.

`Oc1cc(O)cc(/C=C/c2ccc(O)c(O)c2)c1` [piceatannol] was tested, and the EC50 (Sirt5 [3]) was 70 ± 20 µM and the “X-ray crystal structure (2.3 Å, ternary with FdL1 peptide), plus FdL2 deacetylat” value (Sirt3 [4]) was “we also solved the crystal structure of Sirt3 in complex with FdL1-peptide and piceatannol”.

In the case of `OCCc1ccc(O)cc1` [tyrosol, 4-(2-hydroxyethyl)phenol], the “Cytochrome c deacetylation ELISA (activation, Figure S3A)” value (Sirt5 [5]) is reported as “activates Sirt5 in a Cytochrome c deacetylation assay (see below, Figure S3A)”.

For `Oc1ccc(/C=C/c2cc(O)cc(O)c2)cc1` [resveratrol], the “X-ray crystal structure (2.6 Å, ternary with FdL1 peptide); ligand occupancy ~50%” value (Sirt5 [6]) was “Co-ordinates and structure factors of Sirt5 in complex with FdL1-peptide and resveratrol”.

— publication PMC3504108 (PLoS ONE, 2012)
